Data taken from US20080319065A1, “Systemic and Intrathecal Effects of a Novel Series of Phospholipase A2 Inhibitors on Hyperalgesia and Spinal Pge2 Release” (The Regents of the University of California, priority 2005, published 2008).

Columns and labels:
[1] = molecular target: T1, Group IVA cPLA2 (GIVA PLA2) (Homo sapiens, UniProt P47712); experiment: In vitro Group IVA cPLA2 mixed micelle assay; format: biochemical
T1 sequence (P47712 1-749): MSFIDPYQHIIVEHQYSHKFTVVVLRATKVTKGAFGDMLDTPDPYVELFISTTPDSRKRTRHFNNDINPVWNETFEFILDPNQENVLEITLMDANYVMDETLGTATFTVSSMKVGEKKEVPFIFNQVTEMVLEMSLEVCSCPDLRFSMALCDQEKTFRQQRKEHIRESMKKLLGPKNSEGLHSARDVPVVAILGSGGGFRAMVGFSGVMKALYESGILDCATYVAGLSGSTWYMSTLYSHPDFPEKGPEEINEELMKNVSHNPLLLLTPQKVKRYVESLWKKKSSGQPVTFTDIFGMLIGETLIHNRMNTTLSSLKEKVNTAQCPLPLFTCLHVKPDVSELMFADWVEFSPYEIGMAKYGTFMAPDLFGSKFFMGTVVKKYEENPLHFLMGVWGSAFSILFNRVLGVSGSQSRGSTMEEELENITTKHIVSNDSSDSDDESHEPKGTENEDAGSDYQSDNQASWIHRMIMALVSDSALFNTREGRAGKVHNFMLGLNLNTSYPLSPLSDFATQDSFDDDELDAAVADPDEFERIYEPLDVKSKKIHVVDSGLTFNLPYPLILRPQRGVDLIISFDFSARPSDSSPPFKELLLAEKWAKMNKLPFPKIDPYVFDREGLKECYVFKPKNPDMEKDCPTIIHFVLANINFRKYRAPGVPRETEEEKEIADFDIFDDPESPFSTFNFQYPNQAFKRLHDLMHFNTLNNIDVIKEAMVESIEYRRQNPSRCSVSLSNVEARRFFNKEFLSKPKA

[2] = molecular target: T2, Group VIA iPLA2 (GVIA PLA2) (Homo sapiens, UniProt O60733); experiment: In vitro Group VIA iPLA2 mixed micelle assay; format: biochemical
T2 sequence (O60733 1-806): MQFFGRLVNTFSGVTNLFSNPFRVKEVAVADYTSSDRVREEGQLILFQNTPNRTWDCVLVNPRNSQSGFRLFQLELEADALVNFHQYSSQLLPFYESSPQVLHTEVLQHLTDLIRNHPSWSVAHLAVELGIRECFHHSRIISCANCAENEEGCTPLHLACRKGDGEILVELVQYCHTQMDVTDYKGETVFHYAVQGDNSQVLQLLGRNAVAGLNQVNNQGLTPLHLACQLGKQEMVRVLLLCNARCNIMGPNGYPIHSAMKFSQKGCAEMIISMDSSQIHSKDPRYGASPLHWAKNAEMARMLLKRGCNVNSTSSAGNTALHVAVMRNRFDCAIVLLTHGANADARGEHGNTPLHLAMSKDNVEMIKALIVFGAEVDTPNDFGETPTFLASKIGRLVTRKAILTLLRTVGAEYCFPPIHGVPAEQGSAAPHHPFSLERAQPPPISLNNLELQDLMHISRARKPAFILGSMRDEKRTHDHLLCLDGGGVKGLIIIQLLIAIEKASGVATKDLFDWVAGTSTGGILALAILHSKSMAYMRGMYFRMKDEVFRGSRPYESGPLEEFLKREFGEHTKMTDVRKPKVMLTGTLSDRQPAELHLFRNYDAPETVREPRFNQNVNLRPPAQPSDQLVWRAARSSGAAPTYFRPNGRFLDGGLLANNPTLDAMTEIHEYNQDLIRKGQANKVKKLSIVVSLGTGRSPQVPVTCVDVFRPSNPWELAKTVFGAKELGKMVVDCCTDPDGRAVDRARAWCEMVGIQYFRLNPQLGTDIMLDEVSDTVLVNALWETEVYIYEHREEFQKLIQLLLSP

## CCCCCCCCCCCCCCC(=O)C(=O)NCCCC(=O)OCC [AX048, Ethyl 4-[(2-oxohexadecanoyl)amino]butanoate]
[1]; Table 1b
  Group IVA XI(50) (mole fraction): 0.022 ± 0.009 mole fraction
[2]; Table 1b
  Group VIA XI(50) (mole fraction): 0.027 ± 0.009 mole fraction

## CCC(=O)C(=O)NCCCC(=O)OC [AX010]
[1]
  inhibition of GIVA PLA2 (cPLA2), in words: does not significantly inhibit GIVA PLA2
[1]; at 0.091 mole fraction
  Group IVA XI(50), class: N.D. (25% inhibition or less at 0.091 mole fraction)
[1]; at highest dose
  Inhibition of GIVA PLA2: ND (negligible inhibition (0-25%) at highest dose)
[2]
  inhibition of GVIA PLA2 (iPLA2), in words: limited inhibition of GVIA PLA2
[2]; at 0.091 mole fraction
  Group VIA XI(50), class: L.D. (between 25% and 50% inhibition at 0.091 mole fraction)
[2]; at highest dose
  Inhibition of GVIA PLA2: LD (limited inhibition (25-50%) at highest dose)
